“Also recorded” adds a separate entry of the source. Residues, ends and D or L forms follow the SMILES beside them.
Legend:
osteoblast MC3TC-E1 = assay: Safety in osteoblasts; type: cell-based, Mouse; settings: 0.1 μM, 1 μM, 10 μM and 100 μM
Protocol: The safety of the present peptides was determined using osteoblast MC3TC-E1. Osteoblasts were treated with A7-1 peptide as prepared in Example 1 at the concentration of 0.1 μM, 1 μM, 10 μM and 100 μM. Then the effect of the present peptide on the proliferation (FIG. 8A), viability (FIG. 8B) and differentiation (FIG. 8C) on the cells was examined. For testing the effect on the […], MC3T3-E1 and C2C12 cell lines were treated with BMP (rhBMP2, 10 ng/ml for 3 days) and differentiation medium for bone formation for 6 days to induce differentiation. The results were examined by cell staining. It is observed that the present peptide has no effect on the proliferation rate, viability rate or whether or not the cells are differentiated.

[1] = system: anchorage dependent cells MC3T3-E1; assay: Comparative experiment with soluble RGDS, CCK-8; type: cell-based, Mouse; settings: RGDS 0, 10, 100 and 1000 μM
Protocol: The present peptide A7-1(10 μM) or A7-1 together with soluble RGDS peptide (0, 10, 100 and 1000 μM) for competition assay were added to anchorage dependent cells MC3T3-E1 in a test tube and incubated for 10 min. Then the cells were transferred to a culture plate and incubated for 10 min in a thermostatic incubator to allow the cells to attach. After 10 min, the medium was removed and the cells were washed 2 times with PBS to remove any unattached cells and a fresh medium without the peptide and CCK-8 (Dojindo) were added to the cells and incubated for 1 hr in a thermostatic incubator. Then the absorbance was measured at 450 nm. The medium mixed with CCK-8 only was used as a blank.

Molecule	effect on differentiation (osteoblast MC3TC-E1)	effect on proliferation rate (osteoblast MC3TC-E1)	effect on viability rate (osteoblast MC3TC-E1)	cell adhesiveness with RGDS in the absence of A7-1 [1]
CC(C)C[C@H](NC(=O)[C@H](CCC(N)=O)NC(=O)[C@@H](N)CCCNC(=N)N)C(=O)N[C@H](C(=O)N[C@H](C(=O)N[C@@H](CCCCN)C(=O)N[C@@H](Cc1ccccc1)C(=O)N[C@@H](CCCNC(=N)N)C(=O)N[C@@H](C)C(=O)N[C@@H](CC(C)C)C(=O)N1CCC[C@H]1C(=O)N[C@@H](CS)C(=O)O)C(C)C)C(C)C [A7-1, RQLVVKFRALPC] (H-RQLVVKFRALPC-OH)	no effect	no effect	no effect	
RGDS				decreased in a concentration dependent manner; also recorded: significantly reduces the adhesiveness
